ChEMBL document CHEMBL4665719, “Development of SKI-349, a dual-targeted inhibitor of sphingosine kinase and microtubule polymerization” (Bioorg Med Chem Lett, 2020)
Activity calls are given as the source filed them. No cut-off for these calls is given here.

Tests used:
Sphingosine kinase 1 [1] = target: T1, Sphingosine kinase 1 (Homo sapiens, UniProt Q9NYA1); test: Binding affinity to SphK1 in HEK293 cells assessed as direct target engagement incubated for 24 hrs followed by thermal denaturation at 61 degreeC by ITDRF-CETSA assay; type: cell-based
[2] = Toxicity in sub-lethal irradiated C57BL/6J mouse xenografted with […] MLL-AF9 cells assessed as Hb level at 5 mg/kg measured after 2 weeks (reference value: 13.4 +/- 0.5 g/dl); type: organism-based; details: in vivo, 336 h
[3] = target: T2, Sphingosine kinase 1/2 (Homo sapiens) (UniProt Q9NRA0+Q9NYA1); test: Inhibition of SPHK1/SPHK2 in human HL-60 cells assessed as induction of apoptosis by measuring spindle assembly checkpoint arrest at 1 uM after 16 hrs by Western blot analysis; type: cell-based
Sphingosine kinase 1 [4] = target: T1, Sphingosine kinase 1; test: Binding affinity to SphK1 in HEK293 cells assessed as induction of thermal stabilization at 1 uM and 51 to 63.2 degreeC by CETSA-based Western blot analysis; type: cell-based
[5] = Cytotoxicity against human HL60/VCR cells assessed as reduction in cell viability after 48 hrs by MTT assay; type: functional, cell-based
[6] = target: T2, Sphingosine kinase 1/2 (Homo sapiens); test: Inhibition of SPHK1/SPHK2 in human HL-60 cells assessed as sphingosine level assessed per 10^6 cells at 500 nM after 24 hrs by LC-ESI/MS analysis (reference value: 18.3 +/- 3.5 pmol); type: cell-based
[7] = Toxicity in sub-lethal irradiated C57BL/6J mouse xenografted with […] MLL-AF9 cells assessed as Hb level at 1 mg/kg measured after 2 weeks (reference value: 13.4 +/- 0.5 g/dl); type: organism-based; details: in vivo, 336 h
[8] = target: Glycogen synthase kinase-3 beta (Homo sapiens) (UniProt P49841); test: Inhibition of wild-type human full length GSK3B (M1 to T433 residues) expressed in mammalian expression system assessed as residual activity at 1 uM by Kinomescan method relative to control
HL-60 = test: Cytotoxicity against human HL-60 cells assessed as reduction in cell viability after 48 hrs by MTT assay; type: functional, cell-based; details: HL-60, 48 h
[9] = target: Non-receptor tyrosine-protein kinase TYK2 (Homo sapiens) (UniProt P29597); test: Inhibition of wild-type human partial length TYK2 JH2 pseudokinase domain (G556 to D888 residues) expressed in mammalian expression system assessed as residual activity at 1 uM by Kinomescan method relative to control
[10] = Toxicity in sub-lethal irradiated C57BL/6J mouse xenografted with […] MLL-AF9 cells assessed as WBC level at 1 mg/kg measured after 2 weeks (reference value: 6.5 +/- 0.4 10^3/ml); type: organism-based; details: in vivo, 336 h
[11] = Effect on hematopoiesis in sub-lethal irradiated C57BL/6J mouse xenografted with […] MLL-AF9 cells assessed as CD45.1+/CD34 cells in spleen at 1 mg/kg measured after 6 weeks by flow cytometry analysis (reference value: 90 %); type: ADME, organism-based; details: in vivo, 1008 h
[12] = target: T3, Sphingosine kinase 2 (Homo sapiens) (UniProt Q9NRA0); test: Inhibition of SphK2 (unknown origin) catalytic activity at 2 to 5 uM; details: dose microM 2-5
T3 sequence (whole entry): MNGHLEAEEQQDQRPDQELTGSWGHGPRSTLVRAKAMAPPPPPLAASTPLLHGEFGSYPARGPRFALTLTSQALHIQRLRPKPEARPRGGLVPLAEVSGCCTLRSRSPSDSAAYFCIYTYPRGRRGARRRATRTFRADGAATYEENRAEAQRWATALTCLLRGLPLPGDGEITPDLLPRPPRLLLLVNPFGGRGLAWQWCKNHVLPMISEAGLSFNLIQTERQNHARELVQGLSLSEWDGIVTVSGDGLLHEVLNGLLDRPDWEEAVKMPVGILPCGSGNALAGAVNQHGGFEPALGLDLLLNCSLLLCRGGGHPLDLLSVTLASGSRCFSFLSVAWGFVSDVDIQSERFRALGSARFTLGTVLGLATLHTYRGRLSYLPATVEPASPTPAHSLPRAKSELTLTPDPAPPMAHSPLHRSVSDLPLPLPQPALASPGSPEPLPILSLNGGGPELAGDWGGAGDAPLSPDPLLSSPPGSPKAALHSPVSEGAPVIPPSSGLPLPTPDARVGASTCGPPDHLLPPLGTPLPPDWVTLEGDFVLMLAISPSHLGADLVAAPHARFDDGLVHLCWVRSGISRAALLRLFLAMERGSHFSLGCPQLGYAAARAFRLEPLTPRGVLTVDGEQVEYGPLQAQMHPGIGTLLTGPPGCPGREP

[13] = target: Cyclin-dependent kinase 1 (Homo sapiens) (UniProt P06493); test: Activation of CDK1 in human HL-60 cells assessed as activation of caspase 7 at 300 nM after 24 hrs by Western blot analysis; type: cell-based; details: filed as activator
[14] = Effect on hematopoiesis in sub-lethal irradiated C57BL/6J mouse xenografted with […] MLL-AF9 cells assessed as CD45.1+/CD34 cells in bone marrow at 2.5 mg/kg measured after 6 weeks by flow cytometry analysis (reference value: 93 %); type: ADME, organism-based; details: in vivo, 1008 h
[15] = Toxicity in sub-lethal irradiated C57BL/6J mouse xenografted with […] MLL-AF9 cells assessed as RBC level at 5 mg/kg measured after 2 weeks (reference value: 9.8 +/- 0.3 10^6/ml); type: organism-based; details: in vivo, 336 h
Tubulin (Homo sapiens) = Tubulin (Homo sapiens) (UniProt P68371+Q9H4B7+P0DPH7+P68366+Q13509+Q71U36+P04350+Q3ZCM7+P07437+P68363+Q9BQE3+Q6PEY2+Q13885+Q9BVA1+Q9BUF5); test: Inhibition of tubulin polymerization in human MOLM-13 cells assessed as disruption of microtubule network at 500 nM after 18 hrs by FITC-staining based flow cytometry analysis; type: cell-based
[16] = target: Cyclin-dependent kinase 1 (Homo sapiens) (UniProt P06493); test: Activation of CDK1 in human HL-60 cells assessed as activation of caspase 7 at 300 nM after 24 hrs in presence of Ro-3306 by Western blot analysis; type: cell-based
[17] = target: T2, Sphingosine kinase 1/2 (Homo sapiens); test: Inhibition of SPHK1/SPHK2 in human HL-60 cells assessed as sphingosine-1-phosphate level assessed per 10^6 cells at 500 nM after 24 hrs by LC-ESI/MS analysis (reference value: 3.1 +/- 0.3 pmol); type: cell-based
[18] = Effect on hematopoiesis in sub-lethal irradiated C57BL/6J mouse xenografted with […] MLL-AF9 cells assessed as CD45.1+/CD34 cells in bone marrow at 5 mg/kg measured after 6 weeks by flow cytometry analysis (reference value: 93 %); type: ADME, organism-based; details: in vivo, 1008 h
Sphingosine kinase 1 [19] = target: T1, Sphingosine kinase 1; test: Inhibition of recombinant His6x-tagged human SphK1 expressed in HEK293 cells assessed as reduction in S1P formation using D-erythro-sphingosine as substrate by […]
[20] = Toxicity in sub-lethal irradiated C57BL/6J mouse xenografted with […] MLL-AF9 cells assessed as HCT level at 1 mg/kg measured after 2 weeks (reference value: 45 +/- 1.4 %); type: organism-based; details: in vivo, 336 h
MLL-AF9 = test: Antitumor activity against human MLL-AF9 xenografted in sub-lethal irradiated C57BL/6J mouse assessed as increase in mouse survival at 1 to 5 mg/kg administered every day; type: functional, organism-based; details: dose mg/kg 1-5

T1 sequence (Q9NYA1 whole entry): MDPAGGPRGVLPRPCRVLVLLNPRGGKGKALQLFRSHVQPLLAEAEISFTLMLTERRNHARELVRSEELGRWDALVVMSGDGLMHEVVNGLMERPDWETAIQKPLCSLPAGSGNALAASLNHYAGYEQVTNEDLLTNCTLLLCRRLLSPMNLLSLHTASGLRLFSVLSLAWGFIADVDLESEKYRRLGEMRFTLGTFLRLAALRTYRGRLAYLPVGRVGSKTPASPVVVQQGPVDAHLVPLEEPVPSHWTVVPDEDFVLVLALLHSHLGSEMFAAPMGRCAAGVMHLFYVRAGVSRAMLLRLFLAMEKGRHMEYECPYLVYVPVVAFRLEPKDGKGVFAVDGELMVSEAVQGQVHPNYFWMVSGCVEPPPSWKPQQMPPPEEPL
T2 sequence (Q9NYA1 whole entry, looked up, one chain of several): as the sequence (Q9NYA1 whole entry) above
Sequence of Cyclin-dependent kinase 1 (Homo sapiens) (P06493 whole entry, looked up): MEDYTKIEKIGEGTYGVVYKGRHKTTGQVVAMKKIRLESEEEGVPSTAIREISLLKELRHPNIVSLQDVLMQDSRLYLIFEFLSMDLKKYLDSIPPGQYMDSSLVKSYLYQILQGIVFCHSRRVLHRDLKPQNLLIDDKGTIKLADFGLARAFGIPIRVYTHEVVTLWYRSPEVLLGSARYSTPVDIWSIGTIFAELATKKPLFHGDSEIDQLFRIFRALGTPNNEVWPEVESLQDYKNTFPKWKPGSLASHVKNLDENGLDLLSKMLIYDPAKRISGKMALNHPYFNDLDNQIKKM
Sequence of Non-receptor tyrosine-protein kinase TYK2 (Homo sapiens) (P29597 whole entry, the tested form may be a part): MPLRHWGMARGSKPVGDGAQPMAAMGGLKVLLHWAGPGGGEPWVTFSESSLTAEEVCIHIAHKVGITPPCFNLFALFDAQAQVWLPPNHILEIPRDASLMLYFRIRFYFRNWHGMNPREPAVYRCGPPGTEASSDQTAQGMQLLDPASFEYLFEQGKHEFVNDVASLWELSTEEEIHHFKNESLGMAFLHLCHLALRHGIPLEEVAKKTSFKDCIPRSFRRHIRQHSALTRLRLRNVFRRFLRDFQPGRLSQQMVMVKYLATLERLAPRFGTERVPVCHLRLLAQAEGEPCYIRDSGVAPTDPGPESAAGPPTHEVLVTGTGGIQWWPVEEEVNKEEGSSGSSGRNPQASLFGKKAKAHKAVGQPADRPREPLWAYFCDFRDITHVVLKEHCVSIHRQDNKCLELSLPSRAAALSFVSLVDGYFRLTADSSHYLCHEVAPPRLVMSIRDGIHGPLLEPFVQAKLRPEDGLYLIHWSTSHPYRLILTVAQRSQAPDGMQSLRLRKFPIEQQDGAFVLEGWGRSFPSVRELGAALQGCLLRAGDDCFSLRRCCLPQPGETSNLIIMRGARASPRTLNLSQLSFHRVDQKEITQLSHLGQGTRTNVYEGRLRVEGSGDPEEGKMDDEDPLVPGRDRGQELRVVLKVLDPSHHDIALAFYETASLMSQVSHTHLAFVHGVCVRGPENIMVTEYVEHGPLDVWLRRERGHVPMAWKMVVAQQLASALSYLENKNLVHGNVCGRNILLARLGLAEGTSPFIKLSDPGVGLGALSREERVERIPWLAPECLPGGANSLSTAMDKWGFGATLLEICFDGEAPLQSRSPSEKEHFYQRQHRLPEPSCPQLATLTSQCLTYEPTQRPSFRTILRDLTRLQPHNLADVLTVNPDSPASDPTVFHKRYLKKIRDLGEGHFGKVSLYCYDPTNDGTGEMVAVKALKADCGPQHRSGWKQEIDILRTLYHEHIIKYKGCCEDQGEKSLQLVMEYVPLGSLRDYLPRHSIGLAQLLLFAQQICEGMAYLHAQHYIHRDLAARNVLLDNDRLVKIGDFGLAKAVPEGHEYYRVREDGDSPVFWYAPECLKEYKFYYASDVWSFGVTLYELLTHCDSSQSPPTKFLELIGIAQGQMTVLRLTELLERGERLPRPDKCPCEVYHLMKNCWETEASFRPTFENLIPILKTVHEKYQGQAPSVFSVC
Sequence of Glycogen synthase kinase-3 beta (Homo sapiens) (P49841 whole entry, looked up, the tested form may be a part): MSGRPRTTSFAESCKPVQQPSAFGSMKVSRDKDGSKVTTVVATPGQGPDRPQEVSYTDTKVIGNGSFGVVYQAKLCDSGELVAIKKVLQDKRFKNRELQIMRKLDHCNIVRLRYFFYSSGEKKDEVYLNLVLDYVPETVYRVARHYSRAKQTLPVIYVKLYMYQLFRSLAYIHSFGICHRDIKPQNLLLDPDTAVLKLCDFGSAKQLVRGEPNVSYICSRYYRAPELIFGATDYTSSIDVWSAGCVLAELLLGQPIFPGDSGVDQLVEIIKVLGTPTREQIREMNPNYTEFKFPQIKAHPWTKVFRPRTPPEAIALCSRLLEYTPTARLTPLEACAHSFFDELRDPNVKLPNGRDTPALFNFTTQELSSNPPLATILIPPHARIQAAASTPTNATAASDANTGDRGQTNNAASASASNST

For `COc1ccc(Nc2nc(N)c(C(=O)c3ccc(OC)c(OC)c3)s2)cc1`, the IC50 (Sphingosine kinase 1 [1]) was 60 nM, the Activity [2] was 12 g/dL and the Activity [3] was “Active”. For the same compound, the Activity (Sphingosine kinase 1 [4]) was “Active”, the IC50 [5] was 23 nM and the Activity [6] was 27 pmol. The Activity [7] was 12.8 g/dL, the Activity [8] was 27% and the IC50 (HL-60) was 22 nM. The Activity [9] was 14%, the Activity [10] was 8.7 10^3/ml and the Activity [11] was 8%. For the same compound, the inhibition [12] was “inactive”, the Activity [13] was “Active” and the Activity [14] was 7%. The Activity [15] was 9 10^6/ml, the inhibition (Tubulin (Homo sapiens)) was “Active” and the Activity [16] was “inactive”. It also gave an Activity [17] of 2.3 pmol, an Activity [18] of 7% and an IC50 (Sphingosine kinase 1 [19]) of 30 µM. For the same compound, the Activity [20] was 44% and the Activity (MLL-AF9) was “Active”.
